# Test results taken from ChEMBL document CHEMBL6177997, “Design, Synthesis, and Evaluation of Novel ROCK Inhibitors for Glaucoma Treatment: Insights into In Vitro and In Vivo Efficacy and Safety” (J Med Chem, 2025).
# Calls of active or inactive are those of the source. No cut-off for these calls is given here.
# Assays:
# HTM [1] = experiment: Inhibition of TGF-beta2 induced collagen 1A expression in human HTM cells at 1 uM pretreated with compound for 2 hrs followed by TGF-beta2 induction and measured after 24 hrs; type: functional, cell-based; settings: time 26.0 hrs
# HTM [2] = experiment: Inhibition of H2O2-induced ROS production in human HTM cells assessed as decrease in green fluorescence at 1 uM preincubated for 1 hrs followed by H2O2 induction for 2 hrs and measured after 30 mins by DCFH-DA based fluorescence microscopic analysis; type: functional, cell-based; settings: time 3.5 hrs
# [3] = biological target: T1, Rho-associated protein kinase 1 (Homo sapiens, UniProt Q13464); experiment: Inhibition of ROCK1 (unknown origin) incubated for 40 mins in presence of ATP by ADP-glo assay
# Target sequence in this assay (Q13464 whole entry): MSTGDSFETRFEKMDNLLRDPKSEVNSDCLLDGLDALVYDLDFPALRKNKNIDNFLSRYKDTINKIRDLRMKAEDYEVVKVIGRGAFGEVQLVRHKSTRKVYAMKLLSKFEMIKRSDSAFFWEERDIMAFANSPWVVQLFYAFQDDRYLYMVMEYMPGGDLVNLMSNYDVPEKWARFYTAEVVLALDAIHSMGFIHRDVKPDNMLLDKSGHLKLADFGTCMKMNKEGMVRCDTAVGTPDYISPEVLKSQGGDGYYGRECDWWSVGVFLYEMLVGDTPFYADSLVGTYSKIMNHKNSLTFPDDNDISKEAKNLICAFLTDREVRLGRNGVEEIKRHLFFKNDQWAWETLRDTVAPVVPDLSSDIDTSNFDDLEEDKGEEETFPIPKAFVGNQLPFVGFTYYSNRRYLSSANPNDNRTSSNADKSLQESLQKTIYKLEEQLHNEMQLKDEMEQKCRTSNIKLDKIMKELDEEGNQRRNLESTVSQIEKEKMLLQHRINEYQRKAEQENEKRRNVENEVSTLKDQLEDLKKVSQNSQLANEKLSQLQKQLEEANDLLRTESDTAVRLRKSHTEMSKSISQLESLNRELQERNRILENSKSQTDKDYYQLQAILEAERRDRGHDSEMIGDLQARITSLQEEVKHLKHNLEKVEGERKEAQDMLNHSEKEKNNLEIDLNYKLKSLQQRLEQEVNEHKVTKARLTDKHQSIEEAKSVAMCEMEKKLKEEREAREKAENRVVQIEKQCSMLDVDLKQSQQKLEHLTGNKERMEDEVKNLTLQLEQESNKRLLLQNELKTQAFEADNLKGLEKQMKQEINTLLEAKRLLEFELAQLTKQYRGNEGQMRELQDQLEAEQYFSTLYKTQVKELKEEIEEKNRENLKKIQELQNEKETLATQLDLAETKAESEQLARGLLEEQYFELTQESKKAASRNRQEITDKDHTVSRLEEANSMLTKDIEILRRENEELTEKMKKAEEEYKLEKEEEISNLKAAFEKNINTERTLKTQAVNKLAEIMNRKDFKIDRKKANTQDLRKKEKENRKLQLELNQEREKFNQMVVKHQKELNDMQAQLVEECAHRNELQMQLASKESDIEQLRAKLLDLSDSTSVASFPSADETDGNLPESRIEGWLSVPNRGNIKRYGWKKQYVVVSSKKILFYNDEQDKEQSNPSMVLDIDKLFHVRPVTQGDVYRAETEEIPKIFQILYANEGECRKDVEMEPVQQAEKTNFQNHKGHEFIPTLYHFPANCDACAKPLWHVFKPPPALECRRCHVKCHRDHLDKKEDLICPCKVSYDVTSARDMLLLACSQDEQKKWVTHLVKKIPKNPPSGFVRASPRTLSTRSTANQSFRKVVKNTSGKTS
# [4] = biological target: Protein kinase C (PKC) (Homo sapiens) (UniProt O94806+P41743+P17252+P05129+Q05655+P05771+Q05513+Q02156+P24723+Q15139+Q04759); experiment: Inhibition of human PKC using magnesium acetate as substrate at 1 uM measured after 120 mins in presence of [gamma33P]ATP by scintillation counting method relative to control; type: protein assay
# HTM [5] = experiment: Anti-inflammatory activity against human HTM cells assessed as inhibition of H2O2-induced IL-6 secretion; type: functional, cell-based
# Oryctolagus cuniculus [6] = species: Oryctolagus cuniculus; experiment: Anti-glaucoma activity in methylcellulose-induced acute intraocular hypertensive rabbit model assessed as reduction in intraocular pressure at 0.1 %, TOP measured at 8 hrs; type: functional
# HTM [7] = experiment: Induction of morphological changes in human HTM cells assessed as appearance of cell contraction at 45 uM incubated for 10 hrs by light microscopic analysis; type: functional, cell-based
# HTM [8] = experiment: Anti-inflammatory activity against human HTM cells assessed as inhibition of H2O2-induced i-NOS secretion; type: functional, cell-based
# HTM [9] = experiment: Induction of morphological changes in human HTM cells at 3 uM incubated for 10 hrs by light microscopic analysis; type: functional, cell-based
# [10] = biological target: T1, Rho-associated protein kinase 1; experiment: Inhibition of human ROCK1 using magnesium acetate as substrate at 1 uM measured after 120 mins in presence of [gamma33P]ATP by scintillation counting method relative to control
# [11] = biological target: T2, MAP kinase-interacting serine/threonine-protein kinase 1 (Homo sapiens, UniProt Q9BUB5); experiment: Inhibition of human MNK1 using magnesium acetate as substrate at 1 uM measured after 120 mins in presence of [gamma33P]ATP by scintillation counting method relative to control
# Target sequence in this assay (Q9BUB5 whole entry, looked up): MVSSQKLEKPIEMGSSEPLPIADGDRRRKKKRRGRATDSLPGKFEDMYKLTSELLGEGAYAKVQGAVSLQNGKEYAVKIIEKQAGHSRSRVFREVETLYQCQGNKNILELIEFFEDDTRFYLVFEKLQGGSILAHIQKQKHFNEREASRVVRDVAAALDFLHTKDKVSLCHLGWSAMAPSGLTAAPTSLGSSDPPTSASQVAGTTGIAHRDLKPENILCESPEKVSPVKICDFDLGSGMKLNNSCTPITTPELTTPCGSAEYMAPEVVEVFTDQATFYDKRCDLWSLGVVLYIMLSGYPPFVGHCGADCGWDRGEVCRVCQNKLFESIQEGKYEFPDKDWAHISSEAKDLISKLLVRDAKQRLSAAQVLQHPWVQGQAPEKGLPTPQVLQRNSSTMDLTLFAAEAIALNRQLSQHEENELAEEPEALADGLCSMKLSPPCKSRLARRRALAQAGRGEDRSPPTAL
# [12] = biological target: T3, Rho-associated protein kinase 2 (Homo sapiens, UniProt O75116); experiment: Inhibition of human ROCK2 using magnesium acetate as substrate at 1 uM measured after 120 mins in presence of [gamma33P]ATP by scintillation counting method relative to control
# Target sequence in this assay (O75116 whole entry, looked up): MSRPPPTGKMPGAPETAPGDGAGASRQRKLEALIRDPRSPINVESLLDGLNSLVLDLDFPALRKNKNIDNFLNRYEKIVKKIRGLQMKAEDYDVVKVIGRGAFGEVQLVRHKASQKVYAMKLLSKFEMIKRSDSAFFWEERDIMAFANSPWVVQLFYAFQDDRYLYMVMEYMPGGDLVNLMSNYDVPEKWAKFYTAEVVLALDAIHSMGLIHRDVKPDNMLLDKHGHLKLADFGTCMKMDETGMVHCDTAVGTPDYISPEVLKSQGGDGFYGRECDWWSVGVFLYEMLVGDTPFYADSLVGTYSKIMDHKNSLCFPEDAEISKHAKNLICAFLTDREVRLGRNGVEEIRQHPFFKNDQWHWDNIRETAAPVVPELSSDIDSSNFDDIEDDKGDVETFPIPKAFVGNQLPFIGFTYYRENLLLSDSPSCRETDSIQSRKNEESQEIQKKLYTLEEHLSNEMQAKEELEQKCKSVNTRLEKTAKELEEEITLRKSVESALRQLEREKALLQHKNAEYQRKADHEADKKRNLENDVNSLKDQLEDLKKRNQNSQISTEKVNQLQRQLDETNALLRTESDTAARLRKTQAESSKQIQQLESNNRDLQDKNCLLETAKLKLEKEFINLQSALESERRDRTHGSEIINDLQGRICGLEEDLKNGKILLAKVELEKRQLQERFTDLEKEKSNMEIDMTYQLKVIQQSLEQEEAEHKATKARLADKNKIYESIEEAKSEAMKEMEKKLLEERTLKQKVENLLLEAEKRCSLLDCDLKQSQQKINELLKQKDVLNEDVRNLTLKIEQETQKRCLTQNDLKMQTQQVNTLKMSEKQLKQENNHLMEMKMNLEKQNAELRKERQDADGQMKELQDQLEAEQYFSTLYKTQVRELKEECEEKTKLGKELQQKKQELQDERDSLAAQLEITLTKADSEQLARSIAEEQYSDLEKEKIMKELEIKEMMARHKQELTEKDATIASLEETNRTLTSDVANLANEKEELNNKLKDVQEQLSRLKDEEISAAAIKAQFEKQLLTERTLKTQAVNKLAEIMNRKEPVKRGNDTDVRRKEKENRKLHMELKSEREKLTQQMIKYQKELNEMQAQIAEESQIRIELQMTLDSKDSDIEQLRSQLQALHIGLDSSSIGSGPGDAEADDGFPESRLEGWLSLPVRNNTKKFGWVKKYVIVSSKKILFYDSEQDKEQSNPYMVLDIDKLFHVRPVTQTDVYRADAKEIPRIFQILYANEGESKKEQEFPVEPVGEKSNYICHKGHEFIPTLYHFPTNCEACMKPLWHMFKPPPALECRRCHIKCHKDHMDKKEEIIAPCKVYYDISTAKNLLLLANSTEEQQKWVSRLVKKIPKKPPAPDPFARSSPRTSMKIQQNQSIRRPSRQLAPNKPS
# Oryctolagus cuniculus [13] = species: Oryctolagus cuniculus; experiment: Anti-glaucoma activity in methylcellulose-induced high acute intraocular hypertensive rabbit model assessed as reduction in intraocular pressure at 0.1 %, TOP measured at 4 hrs; type: functional
# Homo sapiens [14] = species: Homo sapiens; experiment: Inhibition of human PKB using magnesium acetate as substrate at 1 uM measured after 120 mins in presence of [gamma33P]ATP by scintillation counting method relative to control
# [15] = biological target: MAP kinase-interacting serine/threonine-protein kinase 2 (Homo sapiens) (UniProt Q9HBH9); experiment: Inhibition of MNK2 (unknown origin) at 5 uM preincubated for 10 mins followed by substrate addition and measured after 60 mins by ADP-glo kinase assay relative to control; settings: time 70.0 min
# [16] = biological target: T3, Rho-associated protein kinase 2; experiment: Inhibition of ROCK2 (unknown origin) incubated for 40 mins in presence of ATP by ADP-glo assay
# Target sequence in this assay (O75116 whole entry): as the sequence (O75116 whole entry, looked up) above
# [17] = biological target: T2, MAP kinase-interacting serine/threonine-protein kinase 1; experiment: Inhibition of MNK1 (unknown origin) at 5 uM preincubated for 10 mins followed by substrate addition and measured after 60 mins by ADP-glo kinase assay relative to control; settings: time 70.0 min
# Target sequence in this assay (Q9BUB5 whole entry, looked up): as the sequence (Q9BUB5 whole entry, looked up) above
# HTM [18] = experiment: Inhibition of TGF-beta2 induced alpha-SMA expression in human HTM cells at 1 uM pretreated with compound for 2 hrs followed by TGF-beta2 induction and measured after 24 hrs; type: functional, cell-based; settings: time 26.0 hrs
# Mitochondrial membrane = experiment: Induction of mitochondrial membrane potential in human HTM cells at 1 uM incubated for 24 hrs by JC-1 staining based flow cytometry analysis
# [19] = Induction of apoptosis in H2O2-induced human HTM cells at 1 uM pretreated with compound for 1 hr followed by H2O2 induction and measured after 2 hrs by Annexin V AF647/PI staining based flow cytometry analysis (reference value: 13.47%); type: functional; settings: time 3 hrs
# [20] = Toxicity in rabbit assessed as appearance of conjunctival congestion by measuring ocular irritation score at 0.1 % TOP administration on left eye measured at 7 days by draize eye irritation test; type: tissue-based, Oryctolagus cuniculus; settings: in vivo, topical_or_ocular, 168 h, time 7 day
# HTM [21] = experiment: Induction of morphological changes in human HTM cells at 0.1 uM incubated for 10 hrs in presence of eFT508 by light microscopic analysis; type: functional, cell-based
# [22] = biological target: MAP kinase-interacting serine/threonine-protein kinase 2 (Homo sapiens) (UniProt Q9HBH9); experiment: Inhibition of human MNK2 using magnesium acetate as substrate at 1 uM measured after 120 mins in presence of [gamma33P]ATP by scintillation counting method relative to control
# HTM [23] = experiment: Induction of F-actin depolymerization in human HTM cells at 1 to 5 uM incubated for 4 hrs by rhodamine-phalloidin staining based analysis; type: cell-based; settings: dose 1-5 µM
# [24] = Cytotoxicity against human HTM cells assessed as inhibition of cell proliferation at 45 uM incubated for 24 hrs by MTT assay; type: toxicity, cell-based
# [25] = biological target: Serine/threonine-protein kinase SIK2 (Homo sapiens) (UniProt Q9H0K1); experiment: Inhibition of human QIK using magnesium acetate as substrate at 1 uM measured after 120 mins in presence of [gamma33P]ATP by scintillation counting method relative to control
# HTM [26] = experiment: Inhibition of paxillin expression in human HTM cells at 0.02 to 5 uM; type: functional, cell-based; settings: dose 0.02-5 µM
# HTM [27] = experiment: Induction of morphological changes in human HTM cells assessed as appearance of cell contraction at 15 uM incubated for 10 hrs by light microscopic analysis; type: functional, cell-based
# Oryctolagus cuniculus [28] = species: Oryctolagus cuniculus; experiment: Anti-glaucoma activity in methylcellulose-induced acute intraocular hypertensive rabbit model assessed as reduction in intraocular pressure at 0.1 %, TOP measured at 4 hrs; type: functional
# Homo sapiens [29] = species: Homo sapiens; experiment: Inhibition of human PKA using magnesium acetate as substrate at 1 uM measured after 120 mins in presence of [gamma33P]ATP by scintillation counting method relative to control
# [30] = biological target: Mitogen-activated protein kinase kinase kinase kinase 4 (Homo sapiens) (UniProt O95819); experiment: Inhibition of human HGK using magnesium acetate as substrate at 1 uM measured after 120 mins in presence of [gamma33P]ATP by scintillation counting method relative to control
# HTM [31] = experiment: Anti-inflammatory activity against human HTM cells assessed as inhibition of H2O2-induced NF-kappaB secretion; type: functional, cell-based
# HTM [32] = experiment: Inhibition of cell migration in human HTM cells at 1 uM incubated for 24 to 48 hrs by wound healing assay; type: functional, cell-based; settings: time 24-48 hrs
# Oryctolagus cuniculus [33] = species: Oryctolagus cuniculus; experiment: Anti-glaucoma activity in methylcellulose-induced acute intraocular hypertensive rabbit model assessed as reduction in intraocular pressure at 0.1 %, TOP measured at 2 hrs; type: functional
# [34] = biological target: T2, MAP kinase-interacting serine/threonine-protein kinase 1; experiment: Inhibition of MNK1 (unknown origin) preincubated for 10 mins followed by substrate addition and measured after 60 mins by ADP-glo kinase assay
# Target sequence in this assay (Q9BUB5 whole entry): as the sequence (Q9BUB5 whole entry, looked up) above
# [35] = biological target: T3, Rho-associated protein kinase 2; experiment: Inhibition of ROCK2 (unknown origin) relative to control; settings: concentration not given here
# Target sequence in this assay (O75116 whole entry, looked up): as the sequence (O75116 whole entry, looked up) above
# HTM [36] = experiment: Induction of morphological changes in human HTM cells assessed as appearance of rounded cells at 45 uM incubated for 10 hrs by light microscopic analysis; type: functional, cell-based
# [37] = Cytotoxicity against human HTM cells assessed as reduction in cell viability at 45 uM incubated for 24 hrs by MTT assay relative to control; type: toxicity, cell-based
# HTM [38] = experiment: Induction of F-actin depolymerization in human HTM cells at 5 uM incubated for 4 hrs by rhodamine-phalloidin staining based analysis; type: cell-based
# HTM [39] = experiment: Inhibition of paxillin expression in human HTM cells at 5 uM; type: functional, cell-based
# [40] = Toxicity in rabbit assessed as appearance of conjunctival congestion by measuring ocular irritation score at 0.1 % TOP administration on left eye measured after 7 days by draize eye irritation test; type: tissue-based, Oryctolagus cuniculus; settings: in vivo, topical_or_ocular, 168 h, time 7 day
# [41] = Cytotoxicity against human HTM cells assessed as reduction in cell viability at 15 uM incubated for 24 hrs by MTT assay relative to control; type: toxicity, cell-based
# HTM [42] = experiment: Induction of morphological changes in human HTM cells assessed as appearance of rounded cells at 15 uM incubated for 10 hrs by light microscopic analysis; type: functional, cell-based
# [43] = Toxicity in rabbit assessed as appearance of conjunctival congestion by measuring ocular irritation score at 0.1 % TOP administration on left eye measured on day 4 by draize eye irritation test; type: tissue-based, Oryctolagus cuniculus; settings: in vivo, topical_or_ocular, 96 h, time 4 day
# Sequence of MAP kinase-interacting serine/threonine-protein kinase 2 (Homo sapiens) (Q9HBH9 whole entry, looked up): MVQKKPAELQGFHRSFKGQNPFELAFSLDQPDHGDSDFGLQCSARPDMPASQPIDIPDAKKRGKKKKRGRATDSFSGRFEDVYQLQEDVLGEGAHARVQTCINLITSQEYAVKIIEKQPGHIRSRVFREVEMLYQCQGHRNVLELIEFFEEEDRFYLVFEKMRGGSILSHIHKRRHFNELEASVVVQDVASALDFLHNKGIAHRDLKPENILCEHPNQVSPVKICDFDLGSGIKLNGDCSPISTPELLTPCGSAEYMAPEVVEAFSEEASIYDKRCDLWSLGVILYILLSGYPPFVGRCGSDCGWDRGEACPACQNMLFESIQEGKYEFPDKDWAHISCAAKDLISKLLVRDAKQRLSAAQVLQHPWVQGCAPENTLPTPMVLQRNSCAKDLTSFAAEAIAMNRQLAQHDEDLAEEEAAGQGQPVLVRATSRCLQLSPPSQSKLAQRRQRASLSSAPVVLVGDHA
# Sequence of Mitogen-activated protein kinase kinase kinase kinase 4 (Homo sapiens) (O95819 2-1239 limits assumed): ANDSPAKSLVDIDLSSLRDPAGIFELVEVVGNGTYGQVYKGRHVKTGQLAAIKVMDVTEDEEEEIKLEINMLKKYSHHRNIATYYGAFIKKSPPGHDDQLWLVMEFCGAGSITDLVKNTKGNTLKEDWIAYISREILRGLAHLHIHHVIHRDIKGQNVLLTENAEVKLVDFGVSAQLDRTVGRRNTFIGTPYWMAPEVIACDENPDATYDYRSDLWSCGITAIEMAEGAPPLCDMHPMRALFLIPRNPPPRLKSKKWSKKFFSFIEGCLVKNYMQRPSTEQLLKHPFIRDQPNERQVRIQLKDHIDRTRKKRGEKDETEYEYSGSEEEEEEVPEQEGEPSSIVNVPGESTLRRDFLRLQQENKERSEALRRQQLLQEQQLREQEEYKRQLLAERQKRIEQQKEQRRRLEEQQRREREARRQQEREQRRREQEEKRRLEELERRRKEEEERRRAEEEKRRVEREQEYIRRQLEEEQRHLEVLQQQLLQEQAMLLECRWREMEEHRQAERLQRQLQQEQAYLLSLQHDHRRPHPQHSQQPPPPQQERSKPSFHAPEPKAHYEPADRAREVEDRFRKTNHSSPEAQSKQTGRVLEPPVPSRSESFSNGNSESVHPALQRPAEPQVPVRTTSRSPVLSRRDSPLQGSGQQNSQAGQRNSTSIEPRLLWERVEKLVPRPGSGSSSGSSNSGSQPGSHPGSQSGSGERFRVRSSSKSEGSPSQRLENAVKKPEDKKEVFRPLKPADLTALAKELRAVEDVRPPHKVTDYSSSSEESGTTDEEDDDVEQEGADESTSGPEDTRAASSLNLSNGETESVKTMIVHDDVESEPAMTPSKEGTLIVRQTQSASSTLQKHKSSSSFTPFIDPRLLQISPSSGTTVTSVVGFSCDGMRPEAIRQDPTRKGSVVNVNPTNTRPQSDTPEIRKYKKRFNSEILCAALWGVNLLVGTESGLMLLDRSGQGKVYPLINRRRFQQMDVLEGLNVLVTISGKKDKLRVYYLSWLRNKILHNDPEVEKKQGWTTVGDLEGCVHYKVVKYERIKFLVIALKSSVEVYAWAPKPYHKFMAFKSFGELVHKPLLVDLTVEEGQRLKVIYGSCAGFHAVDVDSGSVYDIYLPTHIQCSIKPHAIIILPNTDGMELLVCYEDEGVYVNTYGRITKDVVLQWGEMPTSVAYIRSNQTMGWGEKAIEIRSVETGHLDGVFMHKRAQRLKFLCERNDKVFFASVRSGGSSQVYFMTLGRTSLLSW
IC50 [3],IC50 [16],Activity (Mitochondrial membrane),SMILES,inhibition (HTM [1]),inhibition (HTM [2]),Activity (HTM [5]),Activity (Oryctolagus cuniculus [6]),Activity (HTM [7]),Activity (HTM [8]),Activity (HTM [9]),Activity (Oryctolagus cuniculus [13]),inhibition (HTM [18]),Activity [19],Activity [20],Activity [24],inhibition (HTM [26]),Activity (HTM [27]),Activity (Oryctolagus cuniculus [28]),inhibition (HTM [31]),inhibition (HTM [32]),further results
123 nM,96.7 nM,Active,COc1cccc(CN2CCC(c3cc(-c4ccnc5[nH]ccc45)[nH]n3)CC2)c1,Active,Active,Active,0.22 mmHg,Active,Active,Minimal_effect; Compound Induced Minimal Changes In Cell Morphology,5.01 mmHg,Active,34.32%,Non-toxic,Non-toxic,Active,Active,0.89 mmHg,Active,inactive,inhibition [4]: < 55%; inhibition [10]: 85%; inhibition [11]: < 55%; inhibition [12]: 89%; inhibition (Homo sapiens [14]): < 50%; inhibition [15]: 64.7%; inhibition [17]: 61.6%; Activity (HTM [21]): Active; inhibition [22]: < 50%; Activity (HTM [23]): Active; inhibition [25]: < 50%; inhibition (Homo sapiens [29]): 70%; inhibition [30]: < 55%
47.2 nM,33.8 nM,inactive,c1cc(-c2cc(C3CCNCC3)n[nH]2)c2cc[nH]c2n1,Active,Active,Active,2.56 mmHg,Active,Active,Minimal_effect; Compound Induced Minimal Changes In Cell Morphology,–,Active,36.77%,Non-toxic,Non-toxic,Active,Active,5 mmHg,Active,inactive,Activity (Oryctolagus cuniculus [33]): 9.38 mmHg; IC50 [34]: 47.2 nM; inhibition [35]: 98%
–,–,inactive,Cc1ccc(C(=O)OCc2ccc([C@@H](CN)C(=O)Nc3ccc4cnccc4c3)cc2)c(C)c1,Active,Active,–,4.7 mmHg,–,–,–,9.5 mmHg,Active,43.02%,–,–,–,–,3.55 mmHg,–,–,Activity (HTM [36]): Active; Activity [37]: 80%; Activity (Oryctolagus cuniculus [33]): 8.16 mmHg; Activity (HTM [38]): Active; inhibition (HTM [39]): Active; Activity [40]: Toxic; Activity [41]: 60%; Activity (HTM [42]): Active; Activity [43]: Toxic
